Measurements published in patent US4711952A, “Serum thymic factor peptide analogs and process for the preparation thereof” (SPOFA, spojene podniky pro zdravotnickouvyrobu, priority 1984, dated 1987).
Non-standard residues stand in square brackets, D forms with d. Residues, ends and D or L forms follow the SMILES beside them. No end group written: not given here. pGlu = O=C1CC[C@@H](C(=O)O)N1

Test system: Flymphocytes
Test: Recovery assay of Flymphocytes (in vitro)
Format: cell-based
Conditions: positive for immunostimulation and negative for immunosuppression
Excerpt: As is evident from the general formula I in comparison with the above structure of the natural substance, the compounds of the present invention, besides optional shortening at the N-terminus, comprise a C-terminal augmentation predominantly by an additional amino-acid residue or residues bearing an amide moiety.

Going from “AKSQGGSNG-NH2 [D-Gln--E--GlyNH2, Alanyl-lysyl-seryl-glutaminyl-glycyl-glycyl-seryl-asparaginyl-glycine amide]” to “AKSQGGSNF-NH2 [D-Gln--E--PheNH2, Alanyl-lysyl-seryl-glutaminyl-glycyl-glycyl-seryl-asparaginyl-phenylalanine amide]”, the “Recovery Assay of Flymbocytes differential count” value rises from 12.75% to 16.09%.

First: C[C@H](NC(=O)[C@@H]1CCC(=O)N1)C(=O)N[C@@H](CCCCN)C(=O)N[C@@H](CO)C(=O)N[C@@H](CCC(N)=O)C(=O)NCC(=O)NCC(=O)N[C@@H](CO)C(=O)N[C@@H](CC(N)=O)C(=O)N[C@@H](Cc1ccccc1)C(N)=O [p-Glu--D-Gln--E--PheNH2, Pyroglutamyl-alanyl-lysyl-seryl-glutaminyl-glycyl-glycyl-seryl-asparaginyl-phenylalanine amide] ([pGlu]AKSQGGSNF-NH2)
Second: NC(=O)C[C@H](NC(=O)[C@H](CO)NC(=O)CNC(=O)CNC(=O)[C@@H]1CCC(=O)N1)C(=O)N[C@@H](Cc1ccccc1)C(N)=O [p-Glu--E--PheNH2, Pyroglutamyl-glycyl-glycyl-seryl-asparaginyl-phenylalanine amide] ([pGlu]GGSNF-NH2)
The “Recovery Assay of Flymbocytes differential count” value of the first is higher: 7.54% for the first, 2.89% for the second.

Going from `C[C@H](NC(=O)[C@@H]1CCC(=O)N1)C(=O)N[C@@H](CCCCN)C(=O)N[C@@H](CO)C(=O)N[C@@H](CCC(N)=O)C(=O)NCC(=O)NCC(=O)N[C@@H](CO)C(=O)N[C@@H](CC(N)=O)C(=O)NCC(N)=O` ([pGlu]AKSQGGSNG-NH2) to `NC(=O)CNC(=O)[C@H](CC(N)=O)NC(=O)[C@H](CO)NC(=O)CNC(=O)CNC(=O)[C@@H]1CCC(=O)N1` [p-Glu--E--GlyNH2, Pyroglutamyl-glycyl-glycyl-seryl-asparaginyl-glycine amide] ([pGlu]GGSNG-NH2), the “Recovery Assay of Flymbocytes differential count” value rises from 6.31% to 6.35%.
